Laboratory results: US20240082342A1, “PEPTIDE THERAPEUTICS FOR INCREASING LUNG CELL VIABILITY” (BOARD OF REGENTS, THE UNIVERSITY OF TEXAS SYSTEM, priority 2018, published 2024)
“Also recorded” adds a separate entry of the source.

Experiments:
A2ECs treated with CSE = test: A2ECs exposed to cigarette smoke extract (CSE) in vitro; assay type: cell-based; conditions: primary A2ECs + CSE
Description: A2ECs were treated with PBS, CSP or its fragment, CSP7 or control peptide (CP), 2 h after exposure of cells to CSE. A2EC lysates were immunoblotted for acetylated/total p53 and active/total caspase-3 24 h after CSE exposure. β-actin levels were evaluated to assess equal loading.
To further confirm CSP7 mimics CSP effect, primary A2ECs were treated with cigarette smoke extract (CSE) prepared in PBS in the presence of CSP or CSP7. The A2ECs treated with CSE and CP or PBS alone were used as controls. The A2EC lysates were tested for acetylated and total p53, apoptosis and Sirt1 expression. CSE induced total and acetylated p53 while inhibiting Sirt1 expression in A2ECs indicating inhibition of Sirt1-mediated deacetylation of p53 contributes to induction of acetylated and total p53 and A2EC apoptosis.

[1] = test system: AECs from human nL exposed to CSE; test: Normal lung AECs exposed to TS/CS extract in vitro for 48 h; assay type: cell-based
Description: Primary Airway Epithelial Cells (AECs); Normal, Human (ATCC® PCS-301-010™) and Primary Airway Epithelial Cells; COPD (ATCC® PCS-301-013™) were obtained from the ATCC and cultured in Airway Cell Basal Medium with glutamine, Extract P, HLL Supplement, and AEC Supplement. containing and 1% penicillin-streptomycin. The cells were maintained at 37° C. in a humidified atmosphere at 5% CO2. All media, supplements, and antibiotics were purchased from ATCC.
Research cigarettes 2R4F were purchased from the Tobacco Health Research University of Kentucky (Lexington, KY). TSE extracts were prepared by burning research cigarettes in a side arm flask and the smoke generated was bubbled into phosphate-buffered saline at room temperature through an attached peristaltic pump as described earlier (Bhandary et al PloS One 10: e0123187, 2015) Tiwari et al. Am J Physiol Lung Cell Mol Physiol. 310:L496-506, 2016. An absorbance of 1.0 at 230 nm is considered 100%. TSE extract was filter sterilized by passing it through a 0.2-μm filter.
Preparation of CSE for the treatment of AECs in vitro. Research cigarettes 2R4F were purchased from the Tobacco Health Research, University of Kentucky (Lexington, KY). CSE were prepared by burning research cigarettes in a sidearm flask and the smoke generated was bubbled into phosphate-buffered saline (PBS) at room temperature through an attached peristaltic pump as described earlier (Shetty et al, 2012). An absorbance of 1.0 at 230 nm is considered 100%. CSE was filter sterilized by passing it through a 0.2-μm filter.
CSP7 inhibits MH and cilia dysfunction in AECs exposed to CS extract (CSE). To further confirm the above findings, AECs isolated from human nL were exposed to CSE in vitro for 48 h and analyzed for MUC5AC, HDAC6, FOXA2, FOXA3, SPDEF, acetylated alpha-tubulin, p53, PAI-1 and LC3. […] The changes at protein level allied with corresponding changes at the mRNA levels (FIG. 36B). […] CSE induced co-localization of MUC5AC and HDAC6, and acetylated alpha-tubulin and LC3 were inhibited following treatment with CSP7.

A2Cs of uPA^−/− mice = test: Tobacco smoke or repeated bleomycin exposure of uPA-/- mice; assay type: in vivo, mouse
Description: To analyze the effect of cigarette smoke, mice were exposed to passive smoke from 40 research cigarettes over a 2-hour period once (2 h) or twice (4 h) daily for 5 days/week for 20 weeks (˜90 mg/m^3 total solid particulates) using a mechanical smoking chamber (Teague Enterprises, Davis, CA). Control mice were exposed to ambient air. At the 18th week, peptide treatment at a dosage of 30 μg/20 g body weight was initiated and continued on a daily basis for the next 14 days. At the end of the experiment, the mice were euthanized and used for the experiments.
To analyze the effect of BLM, mice were exposed to BLM (40 μg/20 g body weight) once per two week for 16 weeks. Control mice were exposed to normal saline. At 14th week the peptide treatment at a dosage of 30 μg/20 g body weight was initiated and continued on a daily basis for the next 14 days. At the end of the experiment, the mice were euthanized and used for the experiments.
To test the effect of chronic TS exposure induced lung injury, these mice were exposed to passive TS from 40 research cigarettes over a 4 h period 5 days/week for 20 weeks (˜90 mg/m3 total solid particulates) using a mechanical smoking chamber (Teague Enterprises, Davis, CA) as described earlier. (Bhandary et al, 2015). Control mice were kept in ambient air. After sixteen weeks of daily passive TS exposure, mice with TS exposure injury were treated with CSP7 at a dosage of 1.5 mg/kg body weight daily 5 days/week for the next four weeks. These mice were continued with daily exposure of 4 h of TS during CSP7 treatment. At the end of the experiment (after 20 weeks of TS exposure), the mice were euthanized, and lungs were utilized for further analyses. To expand the local delivery options of CSP7 to directly treat the damaged lung by air-jet milling for dry powder inhalation (DPI). Mice exposed to TSE were treated with CSP7 using a rotating brush generator for 15 min daily for 7 days. Fourteen days later, BLM mice were subjected to daily inhalation of micronized CSP7 (0.05 mg/kg/d) DP through air-jet-milling for seven consecutive days using a rotating brush exposure system. The rotating brush exposure system gave a consistent minimal chamber concentration of 0.1 mg/L. In order to match dosing of DP inhalation, animal exposure times were adjusted to approximately 15 minutes and an estimated dose of 0.05 mg/kg/d or 1.00 microgram/lung was administered.
To evaluate the effect of CSP7 against chronic BLM-induced PF, the mice were exposed to BLM (40 μg/20 g body weight) once every two weeks for 16 weeks as described elsewhere. (Tiwari et al, 2016). Control mice were exposed to normal saline. Fourteen weeks later the CSP7 at a dosage of 1.5 mg/kg body weight was administered by IP injection and continued daily basis for the next two weeks as described elsewhere. (Tiwari et al, 2016; Shetty et al, 2008b). At the end of the experiment, the mice were euthanized and lung tissues and isolated A2Cs from the extracted lung tissues were used for further analysis.

For “DGIWKASFTTFTVTKYWFYR (listed as Homo sapiens) [CSP, 20 residue caveolin-1 scaffolding domain peptide]”, the CSE-induced apoptosis (A2ECs treated with CSE) was “inhibited CSE-induced apoptosis”.
With “FTTFTVT (listed as Homo sapiens) [CSP7, heptapeptide fragment of the caveolin-1 scaffolding domain peptide CSP]” the “acetylated alpha-tubulin (immunofluorescence)” value ([1]; AECs + CSE) was “improved; also recorded: reversed with CSP7 treatment”, the “TS-induced MUC5A gene expression” value ([1]; bronchial epithelial cells) was “inhibited TS-induced MUC5A gene expression” and the Caveolin1 expression ([1]; nL AECs + TSE) was “reversed by CSP7”. For the same substance, the “MUC5AC, HDAC6, FOXA3, SPDEF and FOXA2 mRNA (qPCR)” value ([1]; nL AECs + TSE) was “reversed by CSP7 treatment”, the “autophagy protein markers (Western blot)” value ([1]; nL AECs + TSE) was “reversed by CSP7” and the “cilia length and number of ciliated cells” value ([1]; nL AECs + TSE/CSE) was “significantly improved; also recorded: significantly reversed”. The “co-localization of MUC5AC/HDAC6 and Ac-Tubulin/LC3” value ([1]; nL AECs + TSE/CSE) was “reversal of the co-localization; also recorded: inhibited”, the “MUC5AC, HDAC6, FOXA3, SPDEF, CAV1, p53, PAI-1, LC3, FOXA2, Ac-Tub proteins (Western blot)” value ([1]; nL AECs + TSE/CSE 48 h) was “reversed with CSP7 treatment” and the “p53, ACp53, S15p53, apoptosis, senescence, PAI-1, SIAH1/2, TRF1, TRF2, PNUTS, TERT (Western blot)” value (A2Cs of uPA^−/− mice; uPA-/- mice, 8×BLM PF) was “minimal effect”. The “telomerase enzyme activity (trapeze)” value (A2Cs of uPA^−/− mice; uPA-/- mice, 8×BLM PF) was “failed to restore”, the “telomere length (qPCR)” value (A2Cs of uPA^−/− mice; uPA-/- mice, 8×BLM PF) was “failed to restore telomere length” and the “telomere shortening (qPCR)” value (A2Cs of uPA^−/− mice; uPA-/- mice, 20 weeks TS) was “failed to respond to CSP7 treatment”. The telomere shortening (A2Cs of uPA^−/− mice; uPA-/- mice, 20 weeks smoke or repeated BLM, vs CP) was “did not show significant difference in telomere shortening”, the “IHC of lung sections for TRF1” value (A2Cs of uPA^−/− mice; uPA-/- mice, TS) was “minimal inhibition” and the “TRF1, TRF2 and TERT expression in A2Cs” value (A2Cs of uPA^−/− mice; uPA-/- mice, TS) was “no significant change”. The “p53 modification/induction, active caspase-3, β-galactosidase (Western blot)” value (A2Cs of uPA^−/− mice; uPA-/- mice, TS) was “failed to inhibit post-translational modification or induction of p53, active caspase-3 or β-galactosidase”, the telomerase activity (A2Cs of uPA^−/− mice; uPA-/- mice, TS) was “inability of CSP7 to reverse telomere shortening or improve telomerase activity” and the “activation of p53, caspase-3, β-galactosidase (Western blot)” value (A2Cs of uPA^−/− mice; uPA-/- mice, smoke or BLM) was “failed to inhibit activation of p53, caspase-3 as well as β-galactosidase”. For the same substance, the “telomerase enzyme activity (trapeze)” value (A2Cs of uPA^−/− mice; uPA-/- mice, smoke or BLM) was “did not restore the telomerase enzyme activity”, the “TRF1, TRF2 and TERT expression” value (A2Cs of uPA^−/− mice; uPA-/- mice, smoke or BLM, CSP7 vs CP groups) was “no significant change” and the “p53-induced PAI-1 expression or telomere dysfunction” value (A2Cs of uPA^−/− mice; uPA-deficient mice, TS- and 8×BLM-induced lung injury) was “failed to suppress p53-induced PAI-1 expression or telomere dysfunction”. The CSE-induced apoptosis (A2ECs treated with CSE) was “inhibited CSE-induced apoptosis”.
With “WGIDKAFFTTSTVTYKWFRY [CP, scrambled control peptide with the same amino acid composition as CSP, reference compound]” the “cilia length and number of ciliated cells” value ([1]; nL AECs + TSE/CSE) was “failed to respond” and the “TRF1, TRF2 and TERT expression in A2Cs” value (A2Cs of uPA^−/− mice; uPA-/- mice, TS) was “no significant change”.
